In ChEMBL document CHEMBL4627309, “Tetra-aryl cyclobutane and stilbenes from the rhizomes of Rheum undulatum and their α-glucosidase inhibitory activity: Biological evaluation, kinetic analysis, and molecular docking simulation” (Bioorg Med Chem Lett, 2020):
Active and inactive are the calls of the source. No cut-off for these calls is given here.

species: Homo sapiens; test: Mixed inhibition of alpha-glucosidase (unknown origin) using p-NPG as substrate by Lineweaver-Burk plot analysis

inhibition	SMILES
Active	COc1ccc(/C=C/c2cc(O)cc(O)c2)cc1O

target: not listed separately; test: Inhibition of alpha-glucosidase (unknown origin) using p-NPG as substrate by spectrophotometric analysis; set-up: species or system Homo sapiens

SMILES	IC50 [µM]
OC[C@H]1O[C@@H](Oc2cc(O)cc(/C=C/c3ccc(O)cc3)c2)[C@H](O)[C@@H](O)[C@@H]1O [PICEID]	> 100
COc1ccc(/C=C/c2cc(O)cc(O[C@@H]3O[C@H](COC(=O)c4ccc(O)cc4)[C@@H](O)[C@H](O)[C@H]3O)c2)cc1	> 100
Cc1cc(O[C@@H]2O[C@H](CO)[C@@H](O)[C@H](O)[C@H]2O)c2c(c1)C(=O)c1cccc(O)c1C2=O [CHRYSOPHANEIN]	> 100
COc1ccc(/C=C\c2cc(O)cc(O[C@@H]3O[C@H](COC(=O)/C=C/c4ccc(O)cc4)[C@@H](O)[C@H](O)[C@H]3O)c2)cc1	> 100
COc1ccc(/C=C/c2cc(O)cc(O[C@@H]3O[C@H](COC(C)=O)[C@@H](O)[C@H](O)[C@H]3O)c2)cc1O	> 100
Cc1cc(O)c2c(c1)C(=O)c1cccc(O[C@@H]3O[C@H](CO)[C@@H](O)[C@H](O)[C@H]3O)c1C2=O [PULMATIN]	> 100
COc1cc(O[C@@H]2O[C@H](CO)[C@@H](O)[C@H](O)[C@H]2O)c2c(O)c(C(C)=O)c(C)cc2c1	> 100
COc1ccc(/C=C/c2cc(O)cc(O[C@@H]3O[C@H](CO)[C@@H](O)[C@H](O)[C@H]3O)c2)cc1O [RHAPONTIN]	> 100

Further lines, results first:

IC50 [µM]	SMILES
> 100	COc1cc(O[C@@H]2O[C@H](CO)[C@@H](O)[C@H](O)[C@H]2O)c2c(c1)C(=O)C(C)=C(C(C)=O)C2=O
80.1	COc1ccc([C@@H]2[C@@H](c3cc(O)cc(O)c3)[C@@H](c3cc(O)cc(O)c3)[C@@H]2c2ccc(OC)c(O)c2)cc1O
15.4	COc1ccc(/C=C/c2cc(O)cc(O)c2)cc1O
127	C[C@H]1O[C@H](O[C@H]2[C@H](O)[C@@H](O)[C@@H](O[C@H]3[C@H](O)[C@@H](O)C(O)O[C@@H]3CO)O[C@@H]2CO)[C@H](O)[C@@H](O)[C@@H]1N[C@H]1C=C(CO)[C@@H](O)[C@H](O)[C@H]1O (some centres undefined) [ACARBOSE]

target: not listed separately; test: Inhibition of alpha-glucosidase (unknown origin) using p-NPG as substrate by Dixon plot analysis; set-up: species or system Homo sapiens

Ki [µM]	SMILES
15.3	COc1ccc(/C=C/c2cc(O)cc(O)c2)cc1O
